According to patent US4933368A, “N-phenylbenzamide derivatives” (Godecke Aktiengesellschaft, priority 1983, dated 1990):
“Also recorded” adds a separate entry of the source.

What was measured:
Osteosarcoma C22LR = assay: Osteosarcoma C22LR, growth retardation in mice; type: in vivo, BCBA mice; conditions: for Surviving Animals: n = 5
Experimental: Preparation: As suspension freshly prepared
before each administration
Route of Oral, suspended in 0.8%
administration: Methocel
Volume: 0.01 per gram body weight
daily for 9 days, if not
Osteosarcoma. C22LR in BCBA mice (C57B1×CBA/Rij, Fl hybrid). The tumor is subcutaneously inoculated bilaterally into the sides. It is measured at least 2×weekly in three dimensions. The terminal point is the retardation of growth. It is defined as the difference of the average time in which the volume of five to ten tumors in five treated animals reaches a given value in comparison with that of five to ten tumors in the control animals. This value was determined as four times that of the average volume at commencement of treatment.

[1] = test system: murine tumors and human tumor xenografts; assay: Antineoplastic activity in tumor-carrying animals, general statements; type: in vivo, mice
[2] = test system: peripheral leukocytes and lymphocytes; assay: Influence on peripheral leukocytes and lymphocytes in rhesus monkeys; type: in vivo; conditions: 1× daily 10 mg/kg i.g.
Experimental: Dosage: 1×daily 10 mg/kg i.g.
FIG. 1: Rhesus monkey ZE, .female.
FIG. 2: Rhesus monkey YL, .female.

Electro-convulsion = assay: Maximal electroconvulsion test; type: in vivo; conditions: Mus musculus, po; i.g., mice
Pentetrazole-convulsion = Pentetrazole-convulsion model; type: in vivo; conditions: Mus musculus, po; i.g., mice
allogeneic skin grafts [3] = assay: Skin graft survival test in rhesus monkeys; type: in vivo, rhesus monkeys (Macaca mulatta); conditions: for lengthening of the normal graft survival time: 10 mg/kg i.g. 1× daily for 10 days, vs normal survival stated as ten days
Experimental: Preparation: Freshly prepared before each
Route of Intragastric via stomach tube,
administration: suspended in 0.8% Methocel
Altogether four allogeneic skin grafts from two different donor animals are transferred crosswise to one unrelated receiving animal. At first the grafts are removed under ketamine narcosis from the shaven and cleaned stomach skin of the donor animals and freed of any fat attached. The four graft receptor sites are prepared on the shaven and cleaned back of the receiving animal under ketamine narcosis by removing suitably sized pieces of skin. Subsequent to successful hemostasis, the grafts are spread out on the graft receptor sites and sewn to the edges of the wound. The wound is covered with a suitable dressing material and this is fixed with an elastic bandage. The bandage is opened on the 5th, 7th, and 9th day after grafting and the function of the grafts examined. On the 9th day the bandage is no longer replaced. The graft function is then controlled daily until rejection has occurred.
Controls are dispensed within this trial on primates for ethical reasons. Comparisons are drawn with the normal survival of allogeneic skin grafts or historic controls, stated as ten days.

allogeneic skin grafts [4] = assay: Trial II, skin graft survival test in rats (recipient Osborne Mendel, donor Lewis), vs azathioprine; type: in vivo; conditions: far smaller quantities of Substance A
Experimental: Route of Intragastric via stomach tube,
suspended in 0.8% Methocel
(§5) Volume: 0.01 ml per gram body weight and dose
Trial II/from Day -2 before grafting to Day +9
Trial II/4-8 mg/kg daily increasing over 12 days
(§6) Two allogeneic skin grafts from a donor rat are transferred to a receiving rat from an unrelated inbred strain. The panniculus carnosus attached to the graft may either be removed by dissection (suprapannicular graft) or be left on the graft (subpannicular graft). Grafting is conducted on Day 0 under light ether narcosis subsequent to shaving and cleanup of the grafting sites. The grafts are fixed on the graft receptor sites by dressing with a suitable bandage. From Day +9 a protective colar is placed on the animals, the bandage removed, and the status of the grafts daily controlled. The assessment of the graft function is conducted by means of a graduation scale, which allows for differentiation of rejection corresponding to a three-degree of severity score. The trial ends on the day when 50% of the animals of one group have rejected both grafts. The lengthening of the graft survival time in comparison to the controls is determined in days.
Recipient: Osborne Mendel .male., Donor: Lewis .male.. Two suprapannicular grafts were transferred from a donor to a recipient.

growing hair follicle = assay: Antiproliferative activity upon topical administering to rats (hair growth); type: in vivo, Long Evans rats; conditions: 0.5% solution in absolute ethanol, 5-10 mg/animal daily
Experimental: No control standard known
Preparation: Fresh before each
Route of Topically by pipetting as
administration: 0.5% solution in absolute
Volume: 1 ml per animal and dose
Tested dose: 5 mg/animal daily for 14 days
10 mg/animal daily for 7 days
A protective collar is placed on male rats of the Long Evans strain, fur color "black-hooded." A rectangle measuring 3 cm long and 1.5 cm wide is marked with the aid of a template on the dorsal skin in the region of the black dorsal hair strip subsequent to shaving and cleansing. The test solution is slowly applied dropwise to this rectangle, so as to avoid it running off onto the surrounding skin. The solvent is applied in the same manner to the control animals. After 21 days of treatment the hair growth is assessed on the treated areas compared with the control areas.

[5] = test system: MNU-induced rat mammary tumor; assay: MNU-induced mammary tumor (CCTR); type: in vivo; conditions: for % T/C / Rating: PO, 4 times daily, Days 1-5 for 5 weeks
Text: Doses just under the acutely lethal dose can be given indefinitely (for more than 30 days), during which the treated animals regain their initial weight loss.

L5222 leukemia = L5222 leukemia (CCLS test); type: in vivo, mice; conditions: IP PO
Text: (§1) The two types of assays used were the standard CCTM test for solid tumors and the CCLS test for leukemia.
(§2) The CCLS assay assesses the antitumor activity of a test agent by measurement of the treatment-induced increase in host lifespan. Only rapidly growing tumors that kill their respective hosts in less than 30 days are appropriate for life span assays.
Test animals are appropriate Fl hybrid mice derived for the inbred strain of tumor origin. After the required mice are randomized, they receive implants (IP, IV, IC, IM, or SC) of appropriately diluted ascites fluid or dilutions of tumor brei on Day 0. […]
(§3) Test agents are dissolved or suspended in any of several vehicles and are administered by the routes and treatment schedules specified on the test protocol. All animals are monitored for signs of acute toxicity and side effects.
Survival is checked daily for each test group. Both the number dead and the number living are counted and recorded. […] Clinical signs are observed and recorded for all test groups. Group body weights are recorded at least weekly as directed in the specific test protocol. […]
(§4) Td=tumor volume doubling time (days), calculated from the slope of a log-linear least square fit of the survival time vs inoculum curve for titrated inocula of tumor cells in untreated mice.
MLS=median life span, calculated by a method appropriate for grouped observations. […]

Distribution coefficient = type: physicochemical; conditions: n-octanol/water pH 7.4/20° C.; read-out: log VK (distribution coefficient)
Text: This is also the case with intragastric application, as shown by certain pharmacological effects.

BN leukemia = BN leukemia (CCLS test); type: in vivo, mice; conditions: for % T/C: IV PO
Text: as §1, §2
Test animals are appropriate Fl hybrid mice derived for the inbred strain of tumor origin. After the required mice are randomized, they receive implants (IP, IV, IC, IM, or SC) of appropriately diluted ascites fluid or dilutions of tumor brei on Day 0. A sample from the final inocula is incubated in thioglycolate media as a check for gross contamination of the tumor material. After tumor inoculation, the test mice are rerandomized and distributed to test groups as per the specific test protocol.
as §3
Survival is checked daily for each test group. Both the number dead and the number living are counted and recorded. All dead mice are autopsied to ascertain the probably cause of death (drug or tumor). Clinical signs are observed and recorded for all test groups. Group body weights are recorded at least weekly as directed in the specific test protocol.
For most life span assays, any animal surviving more than 60 days is sacrificed and autopsied to determine the tumor burden present. It is possible that specific protocols involving unusual tumors or routes of tumor implantation will call for longer termination dates.
as §4
MLS=median life span, calculated by a method appropriate for grouped observations.
NOTE: Some adjustments in these calculations are made to make comparisons with the appropriate control cage more accurate. The slope of the titration curve (least squares fit) is used to calculate the Td for the tumor, but the life span increases of the treated animals are based only on the MLS of the control cage with the same initial inoculum (not on the least square approximation from the titration curve). This in theory reduces any effects from dilution, etc.
All tumor-free survivors (cures) are excluded from the calculation of MLS and cell kill values. Thus all calculated end points represent the response of the treatment failures.

in vivo = conditions: mouse, po
[6] = test system: Mammary adenocarcinoma 16; assay: Mammary adenocarcinoma 16 (CCTM test); type: in vivo, mice; conditions: SC PO, Days 1-16, 56 mg/kg
Experimental: The CCTM assay assesses the antitumor activity of a test agent by measurement of the treatment-induced delay of tumor growth. Tumor growth delay is used because, unlike T/C type assays, the measured parameter is independent of time.
Test animals are Fl hybrid mice derived from the inbred strain of tumor origin. After the required mice are randomized, they receive SC implants of either trocar fragments (30-50 mg) or appropriate dilutions of tumor brei on Day 0. Samples for each donor tumor or from the final brei are incubated in thioglycolate media as a check for gross contamination of the tumor material. After tumor inoculation, the test mice are rerandomized and distributed to test group as per the specific test protocol.
Survival is checked daily for each test group. Both the number dead and the number living are counted and recorded. All dead mice are autopsied to ascertain the probable cause of death (drug or tumor). Clinical signs are observed and recorded for all test groups. Individual body weights are recorded at least weekly as directed in the specific test protocol. Each tumor is measured with calipers as per the protocol (usually two to three times/week). […]
This time may be calculated as:
Td=tumor volume doubling time (days), calculated from the slope of a long-linear least squares fit of the growth curve between 63 and 1000 mg for each control tumor. […]
T,C=median time in days for the tumor in a given group to reach a predetermined evaluation size (usually 750 mg). […] These values are calculated by log/linear interpolation between the nearest tumor measurements on either side of the evaluation size. […]
All tumor-free survivors (cures) are excluded from the calculation of T-C and cell kill values. Thus, all calculated end points represent the response of the treatment failures.

allogeneic skin grafts [7] = assay: Trial I, skin graft survival test in rats (recipient Long Evans, donor Lewis), vs azathioprine + methylprednisolone; type: in vivo
Experimental: Route of Intragastric via stomach tube,
suspended in 0.8% Methocel
as §5
Trial I/from Day -3 before grafting to Day +6
Trial I/10 mg/kg over 6 days, afterwards 5 mg/kg
as §6
Recipient: Long Evans .male., Donor: Lewis .male.. Two suprapannicular grafts were transferred from a donor to a recipient.

[8] = intragastric / oral, vs untreated control

## Nc1ccc(C(=O)Nc2ccccc2N)cc1 [Substance A, 4-Amino-N-(2'-aminophenyl)-benzamide]
Osteosarcoma C22LR; 1 × 240 mg/kg PO
  Surviving Animals: 5/5
Osteosarcoma C22LR; 1 × 240 mg/kg PO, p = 0,001
  Retardation in Growth of Tumor (Days): 3,1 Days
Osteosarcoma C22LR; 2 × 180 mg/kg PO
  Retardation in Growth of Tumor (Days): 9,6 Days
  Surviving Animals: 1/5
Osteosarcoma C22LR; 4 × 120 mg/kg PO
  Retardation in Growth of Tumor (toxic death): toxic death
Osteosarcoma C22LR; 9 × 60 mg/kg IP, controls 5/5
  Surviving Animals: 5/5
Osteosarcoma C22LR; 9 × 60 mg/kg IP, p = 0,0001
  Retardation in Growth of Tumor (Days): 7,8 Days
Osteosarcoma C22LR; mouse, in vivo
  assessment of activity: good activity
[1]; after just two days' rest
  tumor regression late in an extended treatment regimen: partial regression of tumors
[1]; [8]
  average survival time of tumor-carrying mice: significant increase in the average survival time
  retardation in tumor growth: distinct retardation in the growth of the tumor
[1]; mouse, in vivo
  schedule dependence of activity: schedule-dependent, with once daily treatment superior to either more highly fractionated or to intermittent regimens
[1]; oral, refractory tumor models in mice
  cures and cell kills: significant number of cures and cell kills
[1]; spectrum of preclinical tumor models
  anticancer activity, overall: significant activity against a spectrum of preclinical tumor models
[2]
  reduction of the peripheral lymphocytes: simultaneous distinct reduction of the peripheral lymphocytes
Electro-convulsion
  ED50: 30 mg/kg
Pentetrazole-convulsion
  ED50: 44 mg/kg
Allogeneic skin grafts [3]; rhesus monkeys, 10 mg/kg i.g., 10 mg/kg
  immunosuppressive action: distinct immunosuppressive action; also recorded: markedly clear
Allogeneic skin grafts [3]; test animal YL
  lengthening of the normal graft survival time: four to five
Allogeneic skin grafts [3]; test animal ZE
  lengthening of the normal graft survival time: six to seven
Allogeneic skin grafts [4]
  effect compared with standard azathioprine: equally effective as the immunosuppressive standard azathioprine
Growing hair follicle
  inhibition of hair growth / topical antiproliferative action: clear inhibition of hair growth; also recorded: distinct antiproliferate action
[5]; MNU-induced rat mammary tumor
  anticancer activity: significant anticancer activity has been demonstrated and confirmed
[5]; 7.5 mg/kg
  % T/C: 3.5%
  Rating: AA (≤10% T/C High Activity)
[5]; 10 mg/kg
  % T/C: 7.8%
  Rating: AA (≤10% T/C High Activity)
L5222 leukemia; Days 1, 4, 7, 48 mg/kg
  % T/C: 150%
L5222 leukemia; Days 1-9, 15 mg/kg
  % T/C: 169%
Distribution coefficient
  logD: 2.2
BN leukemia; BN leukemia
  anticancer activity: significant anticancer activity has been demonstrated and confirmed
BN leukemia; Days 1-5, 20 mg/kg
  % T/C: 356%
BN leukemia; Days 1-5, 30 mg/kg
  % T/C: 430%
BN leukemia; Days 7-11, 14-18, 20 mg/kg
  % T/C: 335%
BN leukemia; Days 7-11, 14-18, 21-25, 20 mg/kg
  % T/C: 474%
BN leukemia; Days 7-11, 14-18, 21-25, 28-32, 35-39, 8 mg/kg
  % T/C: 343%
In vivo
  LD50 at 168 h: 625 mg/kg
[6]
  (T-C) tumor growth delay: 11 days
  Cell Kill Gross: 3.0 log10
  Cell Kill Net: -1.2 logs
Allogeneic skin grafts [7]; Trial I, vs azathioprine and methylprednisolone
  effect compared with standard medication: superior to an immunosuppressive standard medication comprising azathioprine and methylprednisolone
Allogeneic skin grafts [7]; rats, both trials, far smaller substance quantities
  effect compared with comparison medication: at least equally as effective as the comparison medication
